ChEMBL document CHEMBL1139021, “Synthesis of Tic-D-Phe Psi[CH2-CH2] isostere and its use in the development of melanocortin receptor agonists” (Bioorg Med Chem Lett, 2006)
Where a SMILES comes first, the peptide text is derived from it. [ ]: non-standard residue; d: D form. 2Nal = N[C@@H](Cc1ccc2ccccc2c1)C(=O)O

What was measured:
[1] = target: T1, Melanocortin receptor 4 (Homo sapiens, UniProt P32245); test: Agonist potency at MC4 receptor; type: functional
[2] = target: Melanocortin receptor 3 (Homo sapiens, UniProt P41968); test: Binding affinity to MC3 receptor
[3] = target: Melanocyte-stimulating hormone receptor (Homo sapiens, UniProt Q01726); test: Binding affinity to MC1 receptor
[4] = target: T1, Melanocortin receptor 4; test: Binding affinity to MC4 receptor

Chain of Melanocyte-stimulating hormone receptor (Q01726 whole entry): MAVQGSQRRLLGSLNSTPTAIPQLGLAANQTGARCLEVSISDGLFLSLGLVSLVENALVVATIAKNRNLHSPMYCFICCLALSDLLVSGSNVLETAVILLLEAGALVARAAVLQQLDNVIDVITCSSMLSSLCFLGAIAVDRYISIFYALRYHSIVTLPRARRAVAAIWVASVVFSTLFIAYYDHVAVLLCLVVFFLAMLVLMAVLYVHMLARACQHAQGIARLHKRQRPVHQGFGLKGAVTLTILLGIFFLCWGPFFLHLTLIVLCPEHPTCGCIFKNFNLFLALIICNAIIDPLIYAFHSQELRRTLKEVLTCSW
T1 sequence (P32245 whole entry): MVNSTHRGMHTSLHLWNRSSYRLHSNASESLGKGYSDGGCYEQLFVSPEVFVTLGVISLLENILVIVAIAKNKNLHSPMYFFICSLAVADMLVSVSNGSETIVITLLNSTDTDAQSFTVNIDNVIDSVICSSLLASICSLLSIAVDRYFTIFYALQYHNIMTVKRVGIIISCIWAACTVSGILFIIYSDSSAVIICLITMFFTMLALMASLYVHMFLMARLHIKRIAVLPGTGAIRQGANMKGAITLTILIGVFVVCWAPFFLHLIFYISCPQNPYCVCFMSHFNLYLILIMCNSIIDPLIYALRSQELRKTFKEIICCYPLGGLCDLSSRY
Chain of Melanocortin receptor 3 (P41968 whole entry): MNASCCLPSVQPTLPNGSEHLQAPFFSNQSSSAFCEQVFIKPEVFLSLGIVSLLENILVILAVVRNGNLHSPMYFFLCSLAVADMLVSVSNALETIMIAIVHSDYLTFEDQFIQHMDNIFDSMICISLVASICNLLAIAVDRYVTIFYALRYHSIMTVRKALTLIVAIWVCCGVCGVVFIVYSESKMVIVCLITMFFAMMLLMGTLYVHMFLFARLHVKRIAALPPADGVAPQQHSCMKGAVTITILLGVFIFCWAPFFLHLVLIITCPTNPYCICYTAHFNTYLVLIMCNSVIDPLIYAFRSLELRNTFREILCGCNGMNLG

EC50 [1] [nM] | Emax [1] [%] | Ki [2] [nM] | Ki [3] [nM] | Ki [4] [nM] | Structure (SMILES)
8 | 84 | 23 | 9 | 10 | CC(=O)N[C@H](Cc1ccc(O)cc1)C(=O)N[C@H](Cc1ccccc1)C(=O)N1C[C@H](OCc2ccccc2)C[C@@H]1CCCN=C(N)N
160 | 77 | 2410 | 3990 | 220 | CNC(=O)[C@H](Cc1ccc2ccccc2c1)NC(=O)[C@H](CCCN=C(N)N)NC(=O)[C@H](CC[C@@H]1Cc2ccccc2CN1)Cc1ccccc1
142 | 76 | 382 | 71 | 76 | N=C(N)NCCC[C@H]1C[C@@H](OCc2ccccc2)CN1C(=O)[C@H](CC[C@H]1Cc2ccccc2CN1)Cc1ccccc1
22 | 89 | 468 | 30 | 13 | N=C(N)NCCC[C@H]1C[C@@H](OCc2ccccc2)CN1C(=O)[C@@H](Cc1ccccc1)NC(=O)C1Cc2ccccc2CN1 (single isomer, unassigned)
10 | 91 | 6200 | 22300 | 5 | CNC(=O)[C@H](Cc1ccc2ccccc2c1)NC(=O)[C@H](CCCN=C(N)N)NC(=O)[C@H](CC[C@H](Cc1ccc(O)cc1)NC(C)=O)Cc1ccc(F)cc1
10 | 81 | 1630 | 2280 | 24 | CNC(=O)[C@H](Cc1ccc2ccccc2c1)NC(=O)[C@H](CCCN=C(N)N)NC(=O)[C@@H](Cc1ccccc1)NC(=O)[C@@H]1Cc2ccccc2CN1
193 | 100 | 18000 | 12300 | 214 | CNC(=O)[C@H](Cc1ccc2ccccc2c1)NC(=O)[C@H](CCCN=C(N)N)NC(=O)[C@H](CC[C@H](Cc1ccc(Cl)cc1)NC(C)=O)Cc1ccc(F)cc1
20 | 102 | 55500 | 23400 | 37 | CNC(=O)[C@H](Cc1ccc2ccccc2c1)NC(=O)[C@H](CCCN=C(N)N)NC(=O)[C@H](CC[C@H](Cc1ccccc1)NC(C)=O)Cc1ccc(F)cc1
38 | 90 | 24700 | 8560 | 214 | CNC(=O)[C@H](Cc1ccc2ccccc2c1)NC(=O)[C@H](CCCN=C(N)N)NC(=O)[C@H](CC[C@H](Cc1ccc(O)cc1)NC(C)=O)Cc1ccccc1
44 |  | 1730 | 4520 | 104 | CNC(=O)[C@H](Cc1ccc2ccccc2c1)NC(=O)[C@H](CCCN=C(N)N)NC(=O)[C@@H](Cc1ccccc1)NC(=O)[C@H](Cc1ccc(O)cc1)NC(C)=O (Ac-Y[dF]R[2Nal]-NHMe)
